Series [1] deals with Saccharomyces cerevisiae. In words: Activity of Saccharomyces cerevisiae NMT NMT delta1-30 mutant assessed as production of coenzyme A after 1 hr.
In series [2] the test system is Saccharomyces cerevisiae. In words: Ratio of kcat to Km for Saccharomyces cerevisiae NMT delta1-20 mutant.
The subject of series [3] is Saccharomyces cerevisiae. In words: Ratio of kcat to Km for Saccharomyces cerevisiae NMT delta1-30 mutant.
The subject of series [4] is Saccharomyces cerevisiae. In words: Activity of Saccharomyces cerevisiae NMT D22K/D23K mutant assessed as production of coenzyme A after 1 hr.
Series [5] has as its system Saccharomyces cerevisiae. The series is described as follows: Activity of Saccharomyces cerevisiae NMT NMT delta1-20 mutant assessed as production of coenzyme A after 1 hr.
The test system of series [6] is Saccharomyces cerevisiae. In words: Activity of Saccharomyces cerevisiae NMT NMT delta1-40 mutant assessed as production of coenzyme A after 1 hr.
Series [7] deals with Saccharomyces cerevisiae. In words: Ratio of kcat to Km for Saccharomyces cerevisiae NMT delta1-40 mutant.
The subject of series [8] is Saccharomyces cerevisiae. In words: Ratio of kcat to Km for Saccharomyces cerevisiae NMT D22K/D23K mutant.
Substrate in series [9]: CC(C)C[C@H](NC(=O)CN)C(=O)N[C@@H](Cc1ccccc1)C(=O)N[C@@H](C)C(=O)N[C@@H](CO)C(=O)N[C@@H](CCCCN)C(=O)N[C@@H](CC(C)C)C(=O)N[C@@H](Cc1ccccc1)C(=O)O
In words: Ratio of kcat to Km for Saccharomyces cerevisiae NMT D106A/D108A mutant.

Substrate in series [10]: CC(C)C[C@H](NC(=O)CN)C(=O)N[C@@H](Cc1ccccc1)C(=O)N[C@@H](C)C(=O)N[C@@H](CO)C(=O)N[C@@H](CCCCN)C(=O)N[C@@H](CC(C)C)C(=O)N[C@@H](Cc1ccccc1)C(=O)O
In words: Activity of Saccharomyces cerevisiae NMT D106A/D108A mutant assessed as production of coenzyme A after 1 hr.

Substrate in series [11]: CC(C)C[C@H](NC(=O)CN)C(=O)N[C@@H](Cc1ccccc1)C(=O)N[C@@H](C)C(=O)N[C@@H](CO)C(=O)N[C@@H](CCCCN)C(=O)N[C@@H](CC(C)C)C(=O)N[C@@H](Cc1ccccc1)C(=O)O
In words: Ratio of kcat to Km for Saccharomyces cerevisiae NMT D22A/D23A mutant.

Substrate in series [12]: CC(C)C[C@H](NC(=O)CN)C(=O)N[C@@H](Cc1ccccc1)C(=O)N[C@@H](C)C(=O)N[C@@H](CO)C(=O)N[C@@H](CCCCN)C(=O)N[C@@H](CC(C)C)C(=O)N[C@@H](Cc1ccccc1)C(=O)O
In words: Activity of Saccharomyces cerevisiae NMT D22A/D23A mutant assessed as production of coenzyme A after 1 hr.

For orientation: Km means the substrate concentration at which the rate is half of its maximum. For orientation: kcat means the number of substrate molecules converted per active site and unit of time at saturation. In the case of H-GLFASKLF-OH, the Km in series [1] was determined as 159 µM; in [4] it was 150 µM; in series [5], 27.7 µM; in series [6], 162 µM. Also, the turnover number (kcat) stood at 3.85 s⁻¹ in [1], 4.73 s⁻¹ in series [4], 3.58 s⁻¹ in [5] and 4.03 s⁻¹ in [6]. In addition, the kcat/Km in series [2] was determined as 1.29 ×10⁵ /M/s; in series [3], 2.43 ×10⁴ /M/s; in [7], 2.48 ×10⁴ /M/s; in series [8] it was 3.16 ×10⁴ /M/s.

B1: Glycylpeptide N-tetradecanoyltransferase (Saccharomyces cerevisiae S288c), P14743 D106A,D108A (protein)
chain: MSEEDKAKKLENLLKLLQLNNDDTSKFTQEQKKAMKDHKFWRTQPVKDFDEKVVEEGPIDKPKTPEDISDKPLPLLSSFEWCSIDVDNKKQLEDVFVLLNENYVEARAAGFRFNYTKEFFNWALKSPGWKKDWHIGVRVKETQKLVAFISAIPVTLGVRGKQVPSVEINFLCVHKQLRSKRLTPVLIKEITRRVNKCDIWHALYTAGIVLPAPVSTCRYTHRPLNWKKLYEVDFTGLPDGHTEEDMIAENALPAKTKTAGLRKLKKEDIDQVFELFKRYQSRFELIQIFTKEEFEHNFIGEESLPLDKQVIFSYVVEQPDGKITDFFSFYSLPFTILNNTKYKDLGIGYLYYYATDADFQFKDRFDPKATKALKTRLCELIYDACILAKNANMDVFNALTSQDNTLFLDDLKFGPGDGFLNFYLFNYRAKPITGGLNPDNSNDIKRRSNVGVVML
For B1, the kcat/Km in [9] was 6.62 ×10⁴ /M/s. In series [10], the Km is 38.5 µM and the kcat is 2.55 s⁻¹.

B2: Glycylpeptide N-tetradecanoyltransferase (Saccharomyces cerevisiae S288c), P14743 D22A,D23A (protein)
chain: MSEEDKAKKLENLLKLLQLNNAATSKFTQEQKKAMKDHKFWRTQPVKDFDEKVVEEGPIDKPKTPEDISDKPLPLLSSFEWCSIDVDNKKQLEDVFVLLNENYVEDRDAGFRFNYTKEFFNWALKSPGWKKDWHIGVRVKETQKLVAFISAIPVTLGVRGKQVPSVEINFLCVHKQLRSKRLTPVLIKEITRRVNKCDIWHALYTAGIVLPAPVSTCRYTHRPLNWKKLYEVDFTGLPDGHTEEDMIAENALPAKTKTAGLRKLKKEDIDQVFELFKRYQSRFELIQIFTKEEFEHNFIGEESLPLDKQVIFSYVVEQPDGKITDFFSFYSLPFTILNNTKYKDLGIGYLYYYATDADFQFKDRFDPKATKALKTRLCELIYDACILAKNANMDVFNALTSQDNTLFLDDLKFGPGDGFLNFYLFNYRAKPITGGLNPDNSNDIKRRSNVGVVML
As to B2, the kcat/Km in series [11] was found to be 4.15 ×10⁴ /M/s. In series [12], the Km came out at 92.4 µM and the kcat came out at 3.83 s⁻¹.

For the origin of these results see ChEMBL document CHEMBL1156468, “Crystal structures of Saccharomyces cerevisiae N-myristoyltransferase with bound myristoyl-CoA and inhibitors reveal the functional roles of the N-terminal region” (J Biol Chem, 2007).
